Reference: US9682013B2, “Pharmaceutical compositions comprising human antibodies to PCSK9” (SANOFI BIOTECHNOLOGY, priority 2011, dated 2017)

What was measured:
[1] = tested on: patients with an elevated LDL-C (≧100 mg/dL or 2.59 mmol/L) treated with a stable dose of atorvastatin 10 mg; test: Study 2: randomized, double-blind, placebo-controlled 8-week study of 316P 150 mg E2W with atorvastatin 10 mg or 80 mg; type: in vivo, human; conditions: placebo+atorvastatin 80 mg group, previously on atorvastatin 10 mg
Description: This was a randomized, double-blind, 3-parallel-groups, placebo-controlled, fixed dose/dose regimen, multicenter, 8-week study in subjects with primary hypercholesterolemia, aged 18-75 years. One aim of this study was to assess the efficacy and safety of 316P in patients with an elevated LDL-C (≧100 mg/dL or 2.59 mmol/L) treated with a stable dose of atorvastatin 10 mg.
During the screening period, patients had to be stabilized to atorvastatin 10 mg for at least 6 weeks, if they are not already. Then, after 1 additional screening week, patients were centrally randomized via IVRS/IWRS in a 1:1:1 ratio to one of the 3 treatment groups (placebo for 316P+atorvastatin 80 mg, 316P 150 mg E2W+atorvastatin 80 mg, 316P 150 mg E2W+atorvastatin 10 mg) and treated in a double-blind manner for approximately 8 weeks. 316P was administered every 2 weeks on site trough subcutaneous injection and atorvastatin was administered orally once daily in the evening at home. The double-blind treatment period was then followed by an 8-week follow-up period.
Inclusion criteria: • Patients (patients receiving a lipid lowering treatment other than atorvastatin/or not at stable dose of atorvastatin 10 mg for at least 6 weeks prior to screening period, or drug naive patients) with primary hypercholesterolemia likely to have low-density lipoprotein cholesterol (LDL-C)≧100 mg/dL (≧2.59 mmol/L) at the end of the run-in period on atorvastatin therapy (Week-1). • OR • Patients with primary hypercholesterolemia treated with stable dose of atorvastatin 10 mg for at least 6 weeks prior to screening period and likely to have low-density lipoprotein cholesterol (LDL-C)≧100 mg/dL (≧2.59 mmol/L) at the screening visit (Week-1).
Duration of Study Period Per Subject:
• Arm 1: The first group of patients receives one subcutaneous injection of 1 mL of antibody 316P, administered in the abdomen every two weeks, with a dose regimen at 150 mg, for a double-blind treatment period of 8 weeks; • Atorvastatin is administered once per day at a stable dose of 10 mg as background therapy. • Atorvastatin is administered at a dose of 80 mg once during the double-blind treatment period of 8 weeks. • Arm 2: The second group of patients receives one subcutaneous injection of 1 mL of a placebo solution, administered in the abdomen every two weeks, with a dose regimen at 150 mg, for a double-blind treatment period of 8 weeks; • Atorvastatin is administered once per day at a stable dose of 10 mg as background therapy. • Atorvastatin is administered at a dose of 80 mg (2 over-encapsulated atorvastatin 40 mg tablets) once during the double-blind treatment period of 8 weeks. • Arm 3: The third group of patients receives one subcutaneous injection of 1 mL of antibody 316P, administered in the abdomen every two weeks, with a dose regimen at 150 mg, for a double-blind treatment period of 8 weeks; • Atorvastatin is administered once per day at a stable dose of 10 mg as background therapy. • Atorvastatin is administered at a dose of 10 mg (1 over-encapsulated atorvastatin 10 mg tablet+1 matching placebo tablet) once during the double-blind treatment period of 8 weeks. Primary and Key Secondary Endpoints Primary Endpoints
The primary efficacy variable is the percent change in calculated LDL-C from baseline to Week 8, which is defined as: 100×(calculated LDL-C value at Week 8-calculated LDL-C value at baseline)/calculated LDL-C value at baseline.
In case of unavailable calculated LDL-C value at Week 8 as defined above, then the last calculated LDL-C value measured during the efficacy period and before the Week 8 time window was used to impute the missing Week 8 calculated LDL-C value (Last Observation Carried Forward [LOCF] procedure). […]

male Syrian hamster = test: Study 4: cholesterol lowering effect of 316P alone and with atorvastatin in hamster; type: in vivo; conditions: treatment alone up to the maximal tolerated dose
From the text: This is an animal study on the cholesterol lowering effect of 316P, a fully human PCSK9 blocking monoclonal antibody in male Syrian hamster
The aim of this study was to investigate the effect of 316P, a human monoclonal antibody to human PCSK9, alone and in combination with statins on expression of the hepatic LDLR and the resulting effects on serum LDL-C.
The maximal effect on LDL-C (−17/−27/−60%) was seen within 7 days. PK data of 316P are in line with the dose-dependent effect on LDL-C.

[2] = tested on: patients with genotype-confirmed hoFH; conditions: ezetimibe 10 mg/day added to maximal dose of statins; cited from earlier work

Structure (SMILES) | median reduction from baseline in LDL-C at 8 weeks [1] [%] | LDL-C (male Syrian hamster) | hepatic LDLR expression (male Syrian hamster) | total reduction of LDL-C levels [2] [%]
CC(C)c1c(C(=O)Nc2ccccc2)c(-c2ccccc2)c(-c2ccc(F)cc2)n1CC[C@@H](O)C[C@@H](O)CC(=O)O [atorvastatin, reference compound] | −26.9 | did not decrease LDL-C | no effect | –
O=C1[C@H](CC[C@H](O)c2ccc(F)cc2)[C@@H](c2ccc(O)cc2)N1c1ccc(F)cc1 [ezetimibe] | – | – | – | 27
